Results reported in US10913746B2, “Substituted 4-phenylpiperidines, their preparation and use” (The Trustees of Columbia University in the City of New York, priority 2014, dated 2021).
Where a name gives a salt, the structure may show the parent alone.

Tests used:
[1] = system: subject afflicted with AMD or Stargardt disease; test: Administration to the eye of a subject afflicted with AMD or Stargardt disease; format: in vivo; conditions: Example 113, present tense; administered to the eye
Procedure: An amount of a compound 81 is administered to the eye of a subject afflicted with AMD.
An amount of a compound 81 is administered to the eye of a subject afflicted with Stargardt disease.

Abca4−/− mouse model = test: Bisretinoid accumulation in Abca4−/− mouse model; format: in vivo; conditions: Example 112, present tense; 25 mg/kg for 12 weeks, mice starting at 17 weeks old
Procedure: (§1) Abca4−/− mice have A2E levels in the ˜15-19 pmoles/eye range at 17 weeks old. Mice, starting at 17 weeks old, were treated with 25 mg/kg of Compound 81 for 12 weeks.

serum RBP4 = serum RBP4 (Mus musculus (Mouse), UniProt Q00724); test: Serum RBP4 levels in Abca4−/− mice; format: in vivo; conditions: Example 112, present tense; 25 mg/kg for 12 weeks, mice starting at 17 weeks old
Procedure: as §1

RBP4 = RBP4 (Homo sapiens (Human), UniProt P02753); conditions: cited from earlier work

Structure (SMILES) | treatment of subject afflicted with AMD [1] | treatment of subject afflicted with Stargardt disease [1] | bisretinoid accumulation in Abca4−/− mouse model (Abca4−/− mouse model) | serum RBP4 reduction (serum RBP4) | binding to RBP4, displacement of all-trans retinol (RBP4)
CC(=O)N1CCc2c(C(=O)N3CCC(c4ccc(F)c(F)c4C(F)(F)F)CC3)n[nH]c2C1 [Compound 81, 1-(3-(4-(3,4-Difluoro-2-(trifluoromethyl)phenyl)piperidine-1-carbonyl)-4,5-dihydro-1H-pyrazolo[3,4-c]pyridin-6(7H)-yl)ethanone] | effective to treat the subject | effective to treat the subject | – | – | –
O=C(c1n[nH]c2c1CCNC2)N1CCC(c2cccc(F)c2Cl)CC1 [Compound 40, (4-(2-Chloro-3-fluorophenyl)piperidin-1-yl)(4,5,6,7-tetrahydro-1Hpyrazolo[3,4-c]pyridin-3-yl)methanone Hydrochloride] | – | – | inhibit bisretinoid accumulation | significant serum RBP4 reduction | –
O=C(c1n[nH]c2c1CNCC2)N1CCC(c2cccc(F)c2Cl)CC1 [Compound 42, (4-(2-Chloro-3-fluorophenyl)piperidin-1-yl)(4,5,6,7-tetrahydro-1Hpyrazolo[4,3-c]pyridin-3-yl)methanone Hydrochloride] | – | – | inhibit bisretinoid accumulation | significant serum RBP4 reduction | –
O=C(c1n[nH]c2c1CNCC2)N1CCC(c2ccc(F)c(F)c2C(F)(F)F)CC1 [Compound 36, (4-(3,4-Difluoro-2-(trifluoromethyl)phenyl)piperidin-1-yl)(4,5,6,7-tetrahydro-1H-pyrazolo[4,3-c]pyridin-3-yl)methanone Trifluoroacetic Acid Salt] | – | – | inhibit bisretinoid accumulation | significant serum RBP4 reduction | –
O=C(c1n[nH]c2c1CCNC2)N1CCC(c2ccc(F)c(F)c2C(F)(F)F)CC1 [Compound 34] | – | – | inhibit bisretinoid accumulation | significant serum RBP4 reduction | –
O=C(c1n[nH]c2c1CNC2)N1CCC(c2ccc(F)c(F)c2C(F)(F)F)CC1 [Compound 38, (4-(3,4-Difluoro-2-(trifluoromethyl)phenyl)piperidin-1-yl)(1,4,5,6-tetrahydropyrrolo[3,4-c]pyrazol-3-yl)methanone Hydrochloride] | – | – | inhibit bisretinoid accumulation | significant serum RBP4 reduction | –
O=C(c1n[nH]c2c1CCNC2)N1CCC(c2cccc(F)c2C(F)(F)F)CC1 [Compound 30, (4-(3-Fluoro-2-(trifluoromethyl)phenyl)piperidin-1-yl)(4,5,6,7-tetrahydro-1H-pyrazolo[3,4-c]pyridin-3-yl)methanone Hydrochloride] | – | – | inhibit bisretinoid accumulation | significant serum RBP4 reduction | –
CC1=C(/C=C/C(C)=C/C=C/C(C)=C/C(=O)Nc2ccc(O)cc2)C(C)(C)CCC1 [fenretinide, N-(4-hydroxy-phenyl)retinamide] | – | – | – | – | bind to RBP4
